According to US20140221361A1, “C-19 MODIFIED TRITERPENOIDS WITH HIV MATURATION INHIBITORY ACTIVITY” (priority 2013, published 2014):

The molecules below were run on recombinant NL4-3 virus (Renilla luciferase in nef, Gag P373S) (assay: HIV cell culture assay (luciferase reporter, MT-2 cells)). Conditions: MT-2 cells infected for 4-5 days with NLRluc recombinants; luciferase activity; serial dilutions of inhibitor.
Type: cell-based, HIV-1
Procedure, shortened: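 MT-2 cells infected with recombinant NL4-3 carrying Renilla luciferase in place of part of nef and Gag P373S, virus made by 293T transfection. Infection ran 4-5 days with serial inhibitor dilutions. Antiviral activity read as luciferase activity (Dual Luciferase reagents mixed with lysis buffer).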

Row | SMILES | EC50
1 | CC(O)(CO)[C@@H]1CC[C@]2(NCCN3CCS(=O)(=O)CC3)CC[C@]3(C)[C@H](CC[C@@H]4[C@@]5(C)CC=C(c6ccc(C(=O)O)cc6)C(C)(C)[C@@H]5CC[C@]43C)[C@@H]12 (single isomer, unassigned) [Example B10] | 6.67 nM
2 | CC(N)[C@@H]1CC[C@]2(NCCN3CCS(=O)(=O)CC3)CC[C@]3(C)[C@H](CC[C@@H]4[C@@]5(C)CC=C(c6ccc(C(=O)O)cc6)C(C)(C)[C@@H]5CC[C@]43C)[C@@H]12 (single isomer, unassigned) [Example B41] | 40 nM

Same assay, conditions: Renilla, NL43, MT-2 cells infected for 4-5 days with NLRluc recombinants; luciferase activity; serial dilutions of inhibitor

Row | SMILES | EC50
3 | CC1(C)C(c2ccc(C(=O)O)cc2)=CC[C@]2(C)[C@H]3CC[C@@H]4[C@H]5[C@H](NC(=O)C(F)(F)F)CC[C@]5(NCCN5CCS(=O)(=O)CC5)CC[C@@]4(C)[C@]3(C)CC[C@@H]12 [Example B43, 4-((1R,3aR,5aR,5bR,7aR,11aS,11bR,13aR,13bS)-3a-((2-(1,1-dioxidothiomorpholino)ethyl)amino)-5a,5b,8,8,11a-pentamethyl-1-(2,2,2-trifluoroacetamido)-2,3,3a,4,5,5a,5b,6,7,7a,8,11,11a,11b,12,13,13a,13b-octadecahydro-1H-cyclopenta[a]chrysen-9-yl)benzoic acid] | 2.12 nM
4 | CN(C)[C@@H]1CC[C@]2(NCCN3CCS(=O)(=O)CC3)CC[C@]3(C)[C@H](CC[C@@H]4[C@@]5(C)CC=C(c6ccc(C(=O)O)cc6)C(C)(C)[C@@H]5CC[C@]43C)[C@@H]12 [Example B38, 4-((1R,3aR,5aR,5bR,7aR,11aS,11bR,13aR,13bS)-1-(dimethylamino)-3a-((2-(1,1-dioxidothiomorpholino)ethyl)amino)-5a,5b,8,8,11a-pentamethyl-2,3,3a,4,5,5a,5b,6,7,7a,8,11,11a,11b,12,13,13a,13b-octadecahydro-1H-cyclopenta[a]chrysen-9-yl)benzoic acid] | 10 nM
5 | COCC(C)(O)[C@@H]1CC[C@]2(NCCN3CCS(=O)(=O)CC3)CC[C@]3(C)[C@H](CC[C@@H]4[C@@]5(C)CC=C(c6ccc(C(=O)O)cc6)C(C)(C)[C@@H]5CC[C@]43C)[C@@H]12 (single isomer, unassigned) [Example B1] | 1.19 nM
6 | C=C(COCCN1CCOCC1)[C@@H]1CC[C@]2(C(=O)NCCCN3CCCC3=O)CC[C@]3(C)[C@H](CC[C@@H]4[C@@]5(C)CC=C(c6ccc(C(=O)O)cc6)C(C)(C)[C@@H]5CC[C@]43C)[C@@H]12 [Example 15, 4-((1R,3aS,5aR,5bR,7aR,11aS,11bR,13aR,13bS)-5a,5b,8,8,11a-pentamethyl-1-(3-(2-morpholinoethoxy)prop-1-en-2-yl)-3a-(3-(2-oxopyrrolidin-1-yl)propylcarbamoyl)-2,3,3a,4,5,5a,5b,6,7,7a,8,11,11a,11b,12,13,13a,13b-octadecahydro-1H-cyclopenta[a]chrysen-9-yl)benzoic acid] | 1.83 nM
7 | CN(C)CCNC(=O)[C@]12CC[C@@H](NC(=O)OC(C)(C)C)[C@@H]1[C@H]1CC[C@@H]3[C@@]4(C)CC=C(C5=CCC(C(=O)O)CC5)C(C)(C)[C@@H]4CC[C@@]3(C)[C@]1(C)CC2 (stereo partly drawn) [Example A9, 4-((1R,3aR,5aR,5bR,7aR,11aS,11bR,13aR,13bR)-1-((tert-butoxycarbonyl)amino)-3a-((2-(dimethylamino)ethyl)carbamoyl)-5a,5b,8,8,11a-pentamethyl-2,3,3a,4,5,5a,5b,6,7,7a,8,11,11a,11b,12,13,13a,13b-octadecahydro-1H-cyclopenta[a]chrysen-9-yl)cyclohex-3-enecarboxylic acid] | 1.15 nM
8 | C/C=C1\CC[C@]2(NCCN3CCS(=O)(=O)CC3)CC[C@]3(C)[C@H](CC[C@@H]4[C@@]5(C)CC=C(c6ccc(C(=O)O)cc6)C(C)(C)[C@@H]5CC[C@]43C)[C@@H]12 [Example B13, 4-((3aS,5aR,5bR,7aR,11aS,11bR,13aR,13bS)-3a-((2-(1,1-dioxidothiomorpholino)ethyl)amino)-1-ethylidene-5a,5b,8,8,11a-pentamethyl-2,3,3a,4,5,5a,5b,6,7,7a,8,11,11a,11b,12,13,13a,13b-octadecahydro-1H-cyclopenta[a]chrysen-9-yl)benzoic acid] | 10 nM
9 | CC1(C)C(c2ccc(C(=O)O)cc2)=CC[C@]2(C)[C@H]3CC[C@@H]4[C@H]5[C@H](CO)CC[C@]5(NCCN5CCS(=O)(=O)CC5)CC[C@@]4(C)[C@]3(C)CC[C@@H]12 [Example B42, 4-((1R,3aS,5aR,5bR,7aR,11aS,11bR,13aR,13bS)-3a-((2-(1,1-dioxidothiomorpholino)ethyl)amino)-1-(hydroxymethyl)-5a,5b,8,8,11a-pentamethyl-2,3,3a,4,5,5a,5b,6,7,7a,8,11,11a,11b,12,13,13a,13b-octadecahydro-1H-cyclopenta[a]chrysen-9-yl)benzoic acid] | 40 nM
10 | CC1(C)C(c2ccc(C(=O)O)cc2)=CC[C@]2(C)[C@H]3CC[C@@H]4[C@H]5[C@H](C(=O)COS(=O)O)CC[C@]5(NCCN5CCS(=O)(=O)CC5)CC[C@@]4(C)[C@]3(C)CC[C@@H]12 [Example B24, 4-((1R,3aS,5aR,5bR,7aR,11aS,11bR,13aR,13bS)-3a-((2-(1,1-dioxidothiomorpholino)ethyl)amino)-5a,5b,8,8,11a-pentamethyl-1-(2-(sulfinooxy)acetyl)-2,3,3a,4,5,5a,5b,6,7,7a,8,11,11a,11b,12,13,13a,13b-octadecahydro-1H-cyclopenta[a]chrysen-9-yl)benzoic acid] | 1000 nM
11 | CC1(C)C(c2ccc(C(=O)O)cc2)=CC[C@]2(C)[C@H]3CC[C@@H]4[C@H]5[C@H](N)CC[C@]5(NCCN5CCS(=O)(=O)CC5)CC[C@@]4(C)[C@]3(C)CC[C@@H]12 [Example B33, 4-((1R,3aR,5aR,5bR,7aR,11aS,11bR,13aR,13bS)-1-amino-3a-((2-(1,1-dioxidothiomorpholino)ethyl)amino)-5a,5b,8,8,11a-pentamethyl-2,3,3a,4,5,5a,5b,6,7,7a,8,11,11a,11b,12,13,13a,13b-octadecahydro-1H-cyclopenta[a]chrysen-9-yl)benzoic acid] | 130 nM
12 | CN(C(=O)C(F)(F)F)[C@@H]1CC[C@]2(NCCN3CCS(=O)(=O)CC3)CC[C@]3(C)[C@H](CC[C@@H]4[C@@]5(C)CC=C(c6ccc(C(=O)O)cc6)C(C)(C)[C@@H]5CC[C@]43C)[C@@H]12 [Example B44, 4-((1R,3aR,5aR,5bR,7aR,11aS,11bR,13aR,13bS)-3a-((2-(1,1-dioxidothiomorpholino)ethyl)amino)-5a,5b,8,8,11a-pentamethyl-1-(2,2,2-trifluoro-N-methylacetamido)-2,3,3a,4,5,5a,5b,6,7,7a,8,11,11a,11b,12,13,13a,13b-octadecahydro-1H-cyclopenta[a]chrysen-9-yl)benzoic acid] | 5.92 nM
13 | C=C(CN(C)C(=O)CCC(=O)OC)[C@@H]1CC[C@]2(C(=O)NCCN(C)C)CC[C@]3(C)[C@H](CC[C@@H]4[C@@]5(C)CC=C(c6ccc(C(=O)O)cc6)C(C)(C)[C@@H]5CC[C@]43C)[C@@H]12 [Example 18, 4-((1R,3aS,5aR,5bR,7aR,11aS,11bR,13aR,13bS)-3a-(2-(dimethylamino)ethylcarbamoyl)-1-(3-(4-methoxy-N-methyl-4-oxobutanamido)prop-1-en-2-yl)-5a,5b,8,8,11a-pentamethyl-2,3,3a,4,5,5a,5b,6,7,7a,8,11,11a,11b,12,13,13a,13b-octadecahydro-1H-cyclopenta[a]chrysen-9-yl)benzoic acid] | 1.87 nM
14 | CC1([C@@H]2CC[C@]3(NCCN4CCN(S(C)(=O)=O)CC4)CC[C@]4(C)[C@H](CC[C@@H]5[C@@]6(C)CC=C(c7ccc(C(=O)O)cc7)C(C)(C)[C@@H]6CC[C@]54C)[C@@H]23)CC1 [Example B56, 4-((1R,3aS,5aR,5bR,7aR,11aS,11bR,13aR,13bR)-5a,5b,8,8,11a-pentamethyl-1-(1-methylcyclopropyl)-3a-(2-(4-(methylsulfonyl)piperazin-1-yl)ethylamino)-2,3,3a,4,5,5a,5b,6,7,7a,8,11,11a,11b,12,13,13a,13b-octadecahydro-1H-cyclopenta[a]chrysen-9-yl)benzoic acid] | 2.51 nM
15 | CC1([C@@H]2CC[C@]3(N)CC[C@]4(C)[C@H](CC[C@@H]5[C@@]6(C)CC=C(c7ccc(C(=O)O)cc7)C(C)(C)[C@@H]6CC[C@]54C)[C@@H]23)CC1 [Example B49, 4-((1R,3aS,5aR,5bR,7aR,11aS,11bR,13aR,13bR)-3a-amino-5a,5b,8,8,11a-pentamethyl-1-(1-methylcyclopropyl)-2,3,3a,4,5,5a,5b,6,7,7a,8,11,11a,11b,12,13,13a,13b-octadecahydro-1H-cyclopenta[a]chrysen-9-yl)benzoic acid] | 0.985 nM
16 | CC(=O)[C@@H]1CC[C@]2(NCCN3CCS(=O)(=O)CC3)CC[C@]3(C)[C@H](CC[C@@H]4[C@@]5(C)CC=C(c6ccc(C(=O)O)cc6)C(C)(C)[C@@H]5CC[C@]43C)[C@@H]12 [Example B47, 4-((1R,3aS,5aR,5bR,7aR,11aS,11bR,13aR,13bS)-1-acetyl-3a-((2-(1,1-dioxidothiomorpholino)ethyl)amino)-5a,5b,8,8,11a-pentamethyl-2,3,3a,4,5,5a,5b,6,7,7a,8,11,11a,11b,12,13,13a,13b-octadecahydro-1H-cyclopenta[a]chrysen-9-yl)benzoic acid] | 10 nM
17 | C=C(CN(C)C(=O)CCC(=O)O)[C@@H]1CC[C@]2(C(=O)NCCC(=O)O)CC[C@]3(C)[C@H](CC[C@@H]4[C@@]5(C)CC=C(c6ccc(C(=O)O)cc6)C(C)(C)[C@@H]5CC[C@]43C)[C@@H]12 [Example 10, 4-((1R,3aS,5aR,5bR,7aR,11aS,11bR,13aR,13bS)-1-(3-(3-carboxy-N-methylpropanamido)prop-1-en-2-yl)-3a-(2-carboxyethylcarbamoyl)-5a,5b,8,8,11a-pentamethyl-2,3,3a,4,5,5a,5b,6,7,7a,8,11,11a,11b,12,13,13a,13b-octadecahydro-1H-cyclopenta[a]chrysen-9-yl)benzoic acid] | 2000 nM
